Values after ≈ are worked out from the molar mass of the structure shown. Active and inactive are the calls of the source. The calls are words filed in the database; no cut-off is given here.
How the values were obtained:
Pseudomonas aeruginosa [1] = test: Antibacterial activity against clinical isolates of Pseudomonas aeruginosa ISR-14-003 after 18 hrs by broth microdilution method; format: functional
Acinetobacter baumannii [2] = test: Antibacterial activity against clinical isolates of Acinetobacter baumannii ISR14-005 after 18 hrs by broth microdilution method; format: functional
Staphylococcus aureus = test: Antibacterial activity against Staphylococcus aureus SG 511 after 18 hrs by broth microdilution method; format: functional; conditions: SG 511, 18 h
Acinetobacter baumannii [3] = test: Antibacterial activity against carbapenemase producing Acinetobacter baumannii ATCC 17978-PNT-165 after 18 hrs by broth microdilution method; format: functional; conditions: ATCC 17978-PNT-165, 18 h
Pseudomonas aeruginosa [4] = test: Antibacterial activity against Pseudomonas aeruginosa ARC 3506 after 18 hrs by broth microdilution method; format: functional; conditions: ARC 3506, 18 h
Pseudomonas aeruginosa [5] = test: Antibacterial activity against Pseudomonas aeruginosa KW799/wt after 18 hrs by broth microdilution method; format: functional
Pseudomonas aeruginosa [6] = test: Antibacterial activity against Pseudomonas aeruginosa 01 after 18 hrs by broth microdilution method; format: functional; conditions: Pseudomonas aeruginosa, 01, 18 h
Klebsiella aerogenes = test: Antibacterial activity against Enterobacter aerogenes X816 after 18 hrs by broth microdilution method; format: functional; conditions: X816, 18 h
Pseudomonas aeruginosa [7] = test: Antibacterial activity against clinical isolates of Pseudomonas aeruginosa ISR-14-004 after 18 hrs by broth microdilution method; format: functional
Citrobacter freundii = test: Antibacterial activity against Citrobacter freundii ATCC 29063 after 18 hrs by broth microdilution method; format: functional; conditions: ATCC 29063, 18 h
Escherichia coli = test: Antibacterial activity against Escherichia coli DC0 after 18 hrs by broth microdilution method; format: functional; conditions: DC0, 18 h
Salmonella typhimurium = test: Antibacterial activity against Salmonella typhimurium ATCC 13311 after 18 hrs by broth microdilution method; format: functional, Salmonella enterica subsp. enterica serovar Typhimurium; conditions: Salmonella enterica, ATCC 13311, 18 h
Pseudomonas aeruginosa [8] = test: Antibacterial activity against Pseudomonas aeruginosa ARC 3502 after 18 hrs by broth microdilution method; format: functional; conditions: ARC 3502, 18 h
Acinetobacter baumannii [9] = test: Antibacterial activity against Acinetobacter baumannii ATCC 17961 after 18 hrs by broth microdilution method; format: functional; conditions: ATCC 17961, 18 h
Acinetobacter baumannii [10] = test: Antibacterial activity against Acinetobacter baumannii ATCC BAA 1797 after 18 hrs by broth microdilution method; format: functional; conditions: ATCC BAA 1797, 18 h
Proteus mirabilis = test: Antibacterial activity against Proteus mirabilis X235 after 18 hrs by broth microdilution method; format: functional; conditions: X235, 18 h
Acinetobacter baumannii [11] = test: Antibacterial activity against Acinetobacter baumannii ATCC BAA 1793 after 18 hrs by broth microdilution method; format: functional
Acinetobacter baumannii [12] = test: Antibacterial activity against Acinetobacter baumannii ATCC BAA 1800 after 18 hrs by broth microdilution method; format: functional; conditions: ATCC BAA 1800, 18 h
Burkholderia dolosa = test: Antibacterial activity against Burkholderia dolosa AU0018 after 18 hrs by broth microdilution method; format: functional; conditions: AU0018, 18 h
Acinetobacter baumannii [13] = test: Antibacterial activity against cephalosporinase producing Acinetobacter baumannii ATCC 17978-PNT-320 after 18 hrs by broth microdilution method; format: functional
Acinetobacter baumannii [14] = test: Antibacterial activity against clinical isolates of Acinetobacter baumannii ARC 5079 after 18 hrs by broth microdilution method; format: functional
Acinetobacter baumannii [15] = test: Antibacterial activity against clinical isolates of Acinetobacter baumannii ARC 5079 in presence of tazobactam after 18 hrs by broth microdilution method; format: functional; conditions: ARC 5079, 18 h
Pseudomonas aeruginosa [16] = test: Antibacterial activity against Pseudomonas aeruginosa ARC 3506 after 18 hrs in presence of tazobactam by broth microdilution method; format: functional; conditions: ARC 3506, 18 h
Acinetobacter baumannii [17] = test: Antibacterial activity against Acinetobacter baumannii ATCC BAA 1793 at 10 ug/ml after 18 hrs by broth microdilution method; format: functional
Acinetobacter baumannii [18] = test: Antibacterial activity against Acinetobacter baumannii ATCC BAA 1800 at 10 ug/ml after 18 hrs by broth microdilution method; format: functional
Acinetobacter baumannii [19] = test: Antibacterial activity against clinical isolates of Acinetobacter baumannii ISR14-005 after 18 hrs in presence of tazobactam by broth microdilution method; format: functional; conditions: ISR14-005, 18 h
Pseudomonas aeruginosa [20] = test: Antibacterial activity against Pseudomonas aeruginosa ARC 3502 after 18 hrs in presence of tazobactam by broth microdilution method; format: functional; conditions: ARC 3502, 18 h
Pseudomonas aeruginosa [21] = test: Antibacterial activity against clinical isolates of Pseudomonas aeruginosa ISR-14-003 after 18 hrs in presence of tazobactam by broth microdilution method; format: functional; conditions: ISR-14-003, 18 h
Pseudomonas aeruginosa [22] = test: Antibacterial activity against clinical isolates of Pseudomonas aeruginosa ISR-14-004 after 18 hrs in presence of tazobactam by broth microdilution method; format: functional; conditions: ISR-14-004, 18 h

## CO/N=C(\C(=O)N[C@@H]1C(=O)N(S(=O)(=O)O)[C@H]1CSCCN)c1cnc(N)s1
Pseudomonas aeruginosa [1]; ISR-14-003, 18 h
  MIC: > 50 µM
Acinetobacter baumannii [2]; ISR14-005, 18 h
  MIC: > 50 µM
Staphylococcus aureus
  MIC: > 50 µM
Acinetobacter baumannii [3]
  MIC: 50 µM (≈ 21.9 µg/mL)
Pseudomonas aeruginosa [4]
  MIC: > 50 µM
Pseudomonas aeruginosa [5]
  MIC: > 50 µM
Pseudomonas aeruginosa [6]
  MIC: > 50 µM
Klebsiella aerogenes
  MIC: 0.2 µM (≈ 0.0877 µg/mL)
Pseudomonas aeruginosa [7]; ISR-14-004, 18 h
  MIC: > 50 µM
Citrobacter freundii
  MIC: 12.5 µM (≈ 5.48 µg/mL)
Escherichia coli
  MIC: 25 µM (≈ 11 µg/mL)
Salmonella typhimurium
  MIC: 12.5 µM (≈ 5.48 µg/mL)
Pseudomonas aeruginosa [8]
  MIC: > 50 µM
Acinetobacter baumannii [9]
  MIC: 50 µM (≈ 21.9 µg/mL)
Acinetobacter baumannii [10]
  MIC: > 50 µM
Proteus mirabilis
  MIC: 12.5 µM (≈ 5.48 µg/mL)

## C[C@H]1[C@H](NC(=O)/C(=N\OC(C)(C)C(=O)O)c2csc(N)n2)C(=O)N1S(=O)(=O)O [AZTREONAM]
Acinetobacter baumannii [11]; ATCC BAA 1793, 18 h
  MIC: 12.5 to 25 µM (≈ 5.44 to 10.9 µg/mL)
Staphylococcus aureus
  MIC: > 50 µM
Acinetobacter baumannii [3]
  MIC: 12.5 µM (≈ 5.44 µg/mL)
Acinetobacter baumannii [12]
  MIC: 12.5 to 25 µM (≈ 5.44 to 10.9 µg/mL)
Pseudomonas aeruginosa [4]
  MIC: 12.5 to 50 µM
Pseudomonas aeruginosa [5]
  MIC: 1.6 µM (≈ 0.697 µg/mL)
Klebsiella aerogenes
  MIC: 0.2 µM (≈ 0.0871 µg/mL)
Citrobacter freundii
  MIC: 0.1 µM (≈ 0.0435 µg/mL)
Escherichia coli
  MIC: 0.1 µM (≈ 0.0435 µg/mL)
Burkholderia dolosa
  MIC: > 50 µM
Salmonella typhimurium
  MIC: 0.1 µM (≈ 0.0435 µg/mL)
Proteus mirabilis
  MIC: 0.05 µM (≈ 0.0218 µg/mL)

## COC(=O)CSC[C@H]1[C@H](NC(=O)Cc2ccccc2)C(=O)N1S(=O)(=O)O
Pseudomonas aeruginosa [1]; ISR-14-003, 18 h
  MIC: > 50 µM
Acinetobacter baumannii [2]; ISR14-005, 18 h
  MIC: > 50 µM
Acinetobacter baumannii [11]; ATCC BAA 1793, 18 h
  MIC: > 50 µM
Acinetobacter baumannii [13]; ATCC 17978-PNT-320, 18 h
  MIC: > 50 µM
Staphylococcus aureus
  MIC: > 50 µM
Acinetobacter baumannii [3]
  MIC: > 50 µM
Acinetobacter baumannii [12]
  MIC: > 50 µM
Pseudomonas aeruginosa [4]
  MIC: > 50 µM
Pseudomonas aeruginosa [5]
  MIC: > 50 µM
Pseudomonas aeruginosa [6]
  MIC: > 50 µM
Klebsiella aerogenes
  MIC: > 50 µM
Pseudomonas aeruginosa [7]; ISR-14-004, 18 h
  MIC: > 50 µM
Citrobacter freundii
  MIC: > 50 µM
Escherichia coli
  MIC: > 50 µM
Burkholderia dolosa
  MIC: > 50 µM
Salmonella typhimurium
  MIC: > 50 µM
Acinetobacter baumannii [14]; ARC 5079, 18 h
  MIC: > 50 µM
Pseudomonas aeruginosa [8]
  MIC: > 50 µM
Acinetobacter baumannii [9]
  MIC: > 50 µM
Acinetobacter baumannii [10]
  MIC: > 50 µM
Proteus mirabilis
  MIC: > 50 µM

## CC(C)(O/N=C(\C(=O)N[C@@H]1C(=O)N(S(=O)(=O)O)[C@H]1CSCCN)c1cnc(N)s1)C(=O)O
Pseudomonas aeruginosa [1]; ISR-14-003, 18 h
  MIC: > 50 µM
Acinetobacter baumannii [2]; ISR14-005, 18 h
  MIC: > 50 µM
Acinetobacter baumannii [11]; ATCC BAA 1793, 18 h
  MIC: ≥ 50 µM
Acinetobacter baumannii [13]; ATCC 17978-PNT-320, 18 h
  MIC: > 50 µM
Staphylococcus aureus
  MIC: > 50 µM
Acinetobacter baumannii [3]
  MIC: 50 µM (≈ 25.5 µg/mL)
Acinetobacter baumannii [15]
  MIC: > 50 µM
Acinetobacter baumannii [12]
  MIC: ≥ 50 µM
Pseudomonas aeruginosa [4]
  MIC: > 50 µM
Pseudomonas aeruginosa [5]
  MIC: > 50 µM
Pseudomonas aeruginosa [16]
  MIC: > 50 µM
Pseudomonas aeruginosa [6]
  MIC: > 50 µM
Klebsiella aerogenes
  MIC: 9.4 µM (≈ 4.8 µg/mL)
Pseudomonas aeruginosa [7]; ISR-14-004, 18 h
  MIC: > 50 µM
Citrobacter freundii
  MIC: 3 µM (≈ 1.53 µg/mL)
Escherichia coli
  MIC: 6 µM (≈ 3.06 µg/mL)
Burkholderia dolosa
  MIC: > 50 µM
Salmonella typhimurium
  MIC: 4.5 µM (≈ 2.3 µg/mL)
Acinetobacter baumannii [14]; ARC 5079, 18 h
  MIC: > 50 µM
Pseudomonas aeruginosa [8]
  MIC: ≥ 50 µM
Acinetobacter baumannii [9]
  MIC: > 50 µM
Acinetobacter baumannii [10]
  MIC: 50 µM (≈ 25.5 µg/mL)
Proteus mirabilis
  MIC: 3 µM (≈ 1.53 µg/mL)

## C[C@]1(Cn2ccnn2)[C@H](C(=O)O)N2C(=O)C[C@H]2S1(=O)=O [TAZOBACTAM]
Pseudomonas aeruginosa [1]; ISR-14-003, 18 h
  MIC: > 20 µg/mL
Acinetobacter baumannii [2]; ISR14-005, 18 h
  MIC: > 20 µg/mL
Acinetobacter baumannii [13]; ATCC 17978-PNT-320, 18 h
  MIC: < 10 µg/mL
Pseudomonas aeruginosa [4]
  MIC: > 10 µg/mL
Acinetobacter baumannii [17]
  Activity: inactive
Acinetobacter baumannii [18]
  Activity: inactive
Pseudomonas aeruginosa [7]; ISR-14-004, 18 h
  MIC: > 20 µg/mL
Burkholderia dolosa
  MIC: > 50 µM
Acinetobacter baumannii [14]; ARC 5079, 18 h
  MIC: > 10 µg/mL
Pseudomonas aeruginosa [8]
  MIC: > 10 µg/mL

## POLYMYXIN B
Pseudomonas aeruginosa [1]
  MIC: 0.1 µM
Acinetobacter baumannii [2]
  MIC: < 0.025 µM
Acinetobacter baumannii [11]
  MIC: < 0.025 µM
Acinetobacter baumannii [13]
  MIC: < 0.025 µM
Pseudomonas aeruginosa [7]
  MIC: 0.05 µM
Acinetobacter baumannii [14]
  MIC: < 0.1 µM

## CC(C)(O/N=C(\C(=O)N[C@@H]1C(=O)N(S(=O)(=O)O)[C@H]1CSCCNC(=O)CN(CCCCNC(=O)c1cccc(O)c1O)C(=O)c1cccc(O)c1O)c1cnc(N)s1)C(=O)O
Pseudomonas aeruginosa [1]; ISR-14-003, 18 h
  MIC: 1.6 µM
Acinetobacter baumannii [2]; ISR14-005, 18 h
  MIC: > 50 µM
Acinetobacter baumannii [11]; ATCC BAA 1793, 18 h
  MIC: 0.1 to 0.4 µM (≈ 0.0911 to 0.364 µg/mL)
Acinetobacter baumannii [13]; ATCC 17978-PNT-320, 18 h
  MIC: 0.4 µM
Staphylococcus aureus
  MIC: > 50 µM
Acinetobacter baumannii [3]
  MIC: 0.4 µM (≈ 0.364 µg/mL)
Acinetobacter baumannii [15]
  MIC: 1.6 to 50 µM
Acinetobacter baumannii [12]
  MIC: 0.1 to 0.4 µM (≈ 0.0911 to 0.364 µg/mL)
Pseudomonas aeruginosa [4]
  MIC: > 50 µM
Acinetobacter baumannii [19]
  MIC: 25 µM
Pseudomonas aeruginosa [20]
  MIC: 1.6 µM
Pseudomonas aeruginosa [5]
  MIC: 0.4 µM (≈ 0.364 µg/mL)
Pseudomonas aeruginosa [16]
  MIC: 1.6 to 25 µM
Pseudomonas aeruginosa [6]
  MIC: 0.4 µM (≈ 0.364 µg/mL)
Klebsiella aerogenes
  MIC: 0.075 µM (≈ 0.0683 µg/mL)
Pseudomonas aeruginosa [7]; ISR-14-004, 18 h
  MIC: 6 µM
Citrobacter freundii
  MIC: 0.05 µM (≈ 0.0455 µg/mL)
Escherichia coli
  MIC: < 0.025 µM
Burkholderia dolosa
  MIC: > 50 µM
Pseudomonas aeruginosa [21]
  MIC: 1.6 µM
Pseudomonas aeruginosa [22]
  MIC: 3 µM
Salmonella typhimurium
  MIC: 0.025 µM (≈ 0.0228 µg/mL)
Acinetobacter baumannii [14]; ARC 5079, 18 h
  MIC: 1.6 to 25 µM
Pseudomonas aeruginosa [8]
  MIC: > 50 µM
Acinetobacter baumannii [9]
  MIC: 0.2 µM (≈ 0.182 µg/mL)
Acinetobacter baumannii [10]
  MIC: 0.4 µM (≈ 0.364 µg/mL)
Proteus mirabilis
  MIC: < 0.025 µM

From ChEMBL document CHEMBL4028874, “Methodology for Monobactam Diversification: Syntheses and Studies of 4-Thiomethyl Substituted β-Lactams with Activity against Gram-Negative Bacteria, Including Carbapenemase Producing Acinetobacter baumannii” (2017)
